According to PubChem BioAssay AID1259407 (Chemical Carcinogenesis Research Information System (CCRIS), 2018):
Active and inactive are the calls of the source. No rule for the calls is given here.

Test system: CCRIS mutagenicity, Ames/micronucleus/aberration tests
Assay: CCRIS mutagenicity studies
[1] = Test System: AMES SALMONELLA TYPHIMURIUM, Strain/Indicator: TA98, Metabolic Activation: NONE, Method: PREINCUBATION
[2] = Test System: AMES SALMONELLA TYPHIMURIUM, Strain/Indicator: TA98, Metabolic Activation: RAT, LIVER, S-9, AROCLOR 1254, Method: PREINCUBATION
[3] = Test System: AMES SALMONELLA TYPHIMURIUM, Strain/Indicator: TA100, Metabolic Activation: NONE, Method: PREINCUBATION
[4] = Test System: AMES SALMONELLA TYPHIMURIUM, Strain/Indicator: TA100, Metabolic Activation: RAT, LIVER, S-9, AROCLOR 1254, Method: PREINCUBATION

CCCCC(CC)COC(=O)c1ccc(N(C)N=O)cc1 (configuration not stated)
mutagenic call (Test System: AMES SALMONELLA TYPHIMURIUM, Strain/Indicator: TA98, Metabolic Activation: HAMSTER, LIVER, S-9, AROCLOR 1254, Method: PREINCUBATION): inactive; negative | mutagenic call (Test System: AMES SALMONELLA TYPHIMURIUM, Strain/Indicator: TA98, Metabolic Activation: HAMSTER, LIVER, S-9, AROCLOR 1254, Method: STANDARD PLATE): inactive; negative | mutagenic call [1]: inactive; negative | mutagenic call (Test System: AMES SALMONELLA TYPHIMURIUM, Strain/Indicator: TA98, Metabolic Activation: NONE, Method: STANDARD PLATE): inactive; negative | mutagenic call [2]: inactive; negative | mutagenic call (Test System: AMES SALMONELLA TYPHIMURIUM, Strain/Indicator: TA98, Metabolic Activation: RAT, LIVER, S-9, AROCLOR 1254, Method: STANDARD PLATE): inactive; negative | mutagenic call (Test System: AMES SALMONELLA TYPHIMURIUM, Strain/Indicator: TA100, Metabolic Activation: HAMSTER, LIVER, S-9, AROCLOR 1254 (1.5 OR 3.6 MG), Method: PREINCUBATION): inactive; negative | mutagenic call (Test System: AMES SALMONELLA TYPHIMURIUM, Strain/Indicator: TA100, Metabolic Activation: HAMSTER, LIVER, S-9, AROCLOR 1254, Method: PREINCUBATION): inactive; negative | mutagenic call (Test System: AMES SALMONELLA TYPHIMURIUM, Strain/Indicator: TA100, Metabolic Activation: HAMSTER, LIVER, S-9, AROCLOR 1254, Method: STANDARD PLATE): inactive; negative | mutagenic call [3]: inactive; negative | mutagenic call (Test System: AMES SALMONELLA TYPHIMURIUM, Strain/Indicator: TA100, Metabolic Activation: NONE, Method: STANDARD PLATE): inactive; negative | mutagenic call (Test System: AMES SALMONELLA TYPHIMURIUM, Strain/Indicator: TA100, Metabolic Activation: RAT, LIVER, S-9, AROCLOR 1254 (1.5 OR 2.2 MG), Method: PREINCUBATION): inactive; negative | mutagenic call [4]: inactive; negative | mutagenic call (Test System: AMES SALMONELLA TYPHIMURIUM, Strain/Indicator: TA100, Metabolic Activation: RAT, LIVER, S-9, AROCLOR 1254, Method: STANDARD PLATE): inactive; negative | mutagenic call (Test System: AMES SALMONELLA TYPHIMURIUM, Strain/Indicator: TA1535, Metabolic Activation: HAMSTER, LIVER, S-9, AROCLOR 1254 (1.5 OR 3.6 MG), Method: PREINCUBATION): inactive; negative | mutagenic call (Test System: AMES SALMONELLA TYPHIMURIUM, Strain/Indicator: TA1535, Metabolic Activation: HAMSTER, LIVER, S-9, AROCLOR 1254, Method: PREINCUBATION): inactive; negative | mutagenic call (Test System: AMES SALMONELLA TYPHIMURIUM, Strain/Indicator: TA1535, Metabolic Activation: HAMSTER, LIVER, S-9, AROCLOR 1254, Method: STANDARD PLATE): inactive; negative | mutagenic call (Test System: AMES SALMONELLA TYPHIMURIUM, Strain/Indicator: TA1535, Metabolic Activation: NONE, Method: PREINCUBATION): inactive; negative | mutagenic call (Test System: AMES SALMONELLA TYPHIMURIUM, Strain/Indicator: TA1535, Metabolic Activation: NONE, Method: STANDARD PLATE): inactive; negative | mutagenic call (Test System: AMES SALMONELLA TYPHIMURIUM, Strain/Indicator: TA1535, Metabolic Activation: RAT, LIVER, S-9, AROCLOR 1254 (1.5 OR 2.2 MG), Method: PREINCUBATION): inactive; negative | mutagenic call (Test System: AMES SALMONELLA TYPHIMURIUM, Strain/Indicator: TA1535, Metabolic Activation: RAT, LIVER, S-9, AROCLOR 1254, Method: PREINCUBATION): inactive; negative | mutagenic call (Test System: AMES SALMONELLA TYPHIMURIUM, Strain/Indicator: TA1535, Metabolic Activation: RAT, LIVER, S-9, AROCLOR 1254, Method: STANDARD PLATE): inactive; negative | mutagenic call (Test System: AMES SALMONELLA TYPHIMURIUM, Strain/Indicator: TA1537, Metabolic Activation: HAMSTER, LIVER, S-9, AROCLOR 1254, Method: PREINCUBATION): inactive; negative | mutagenic call (Test System: AMES SALMONELLA TYPHIMURIUM, Strain/Indicator: TA1537, Metabolic Activation: HAMSTER, LIVER, S-9, AROCLOR 1254, Method: STANDARD PLATE): inactive; negative | mutagenic call (Test System: AMES SALMONELLA TYPHIMURIUM, Strain/Indicator: TA1537, Metabolic Activation: NONE, Method: PREINCUBATION): inactive; negative | mutagenic call (Test System: AMES SALMONELLA TYPHIMURIUM, Strain/Indicator: TA1537, Metabolic Activation: NONE, Method: STANDARD PLATE): inactive; negative | mutagenic call (Test System: AMES SALMONELLA TYPHIMURIUM, Strain/Indicator: TA1537, Metabolic Activation: RAT, LIVER, S-9, AROCLOR 1254, Method: PREINCUBATION): inactive; negative | mutagenic call (Test System: AMES SALMONELLA TYPHIMURIUM, Strain/Indicator: TA1537, Metabolic Activation: RAT, LIVER, S-9, AROCLOR 1254, Method: STANDARD PLATE): inactive; negative | mutagenic call (Test System: AMES SALMONELLA TYPHIMURIUM, Strain/Indicator: TA1538, Metabolic Activation: HAMSTER, LIVER, S-9, AROCLOR 1254, Method: PREINCUBATION): inactive; negative | mutagenic call (Test System: AMES SALMONELLA TYPHIMURIUM, Strain/Indicator: TA1538, Metabolic Activation: HAMSTER, LIVER, S-9, AROCLOR 1254, Method: STANDARD PLATE): inactive; negative | mutagenic call (Test System: AMES SALMONELLA TYPHIMURIUM, Strain/Indicator: TA1538, Metabolic Activation: NONE, Method: PREINCUBATION): inactive; negative | mutagenic call (Test System: AMES SALMONELLA TYPHIMURIUM, Strain/Indicator: TA1538, Metabolic Activation: NONE, Method: STANDARD PLATE): inactive; negative | mutagenic call (Test System: AMES SALMONELLA TYPHIMURIUM, Strain/Indicator: TA1538, Metabolic Activation: RAT, LIVER, S-9, AROCLOR 1254, Method: PREINCUBATION): inactive; negative | mutagenic call (Test System: AMES SALMONELLA TYPHIMURIUM, Strain/Indicator: TA1538, Metabolic Activation: RAT, LIVER, S-9, AROCLOR 1254, Method: STANDARD PLATE): inactive; negative | mutagenic call (Test System: MOUSE LYMPHOMA, Strain/Indicator: L5178Y (TK+/TK-), Metabolic Activation: HAMSTER, LIVER, S-9, AROCLOR 1254, Method: SUSPENSION/PLATE): inactive; negative

COc1cccc2c1C(=O)c1c(O)c3c(c(O)c1C2=O)CC(O)(C(C)=O)CC3OC1CC(N2CCOCC2C#N)C(O)C(C)O1 (configuration not stated)
mutagenic call (Test System: AMES SALMONELLA TYPHIMURIUM, Strain/Indicator: TA98, Metabolic Activation: NONE): inactive; negative | mutagenic call (Test System: AMES SALMONELLA TYPHIMURIUM, Strain/Indicator: TA98, Metabolic Activation: RAT, LIVER, S-9, AROCLOR 1254): active; positive | mutagenic call (Test System: CHINESE HAMSTER V-79, Strain/Indicator: V-79/8-AZAGUANINE, Metabolic Activation: NONE): active; positive | mutagenic call (Test System: CHINESE HAMSTER V-79, Strain/Indicator: V-79/8-AZAGUANINE, Metabolic Activation: RAT, HEPATOCYTES): inactive; negative | mutagenic call (Test System: UDS RAT HEPATOCYTES, Strain/Indicator: THY INCORP, Metabolic Activation: NONE, Method: AUTOMATIC COLONY COUNTER): active; positive

O=c1oc2c([N+](=O)[O-])ccc3ccc4cccc1c4c32
mutagenic call (Test System: AMES SALMONELLA TYPHIMURIUM, Strain/Indicator: TA98(1,8-DNP6), Metabolic Activation: NONE, Method: PREINCUBATION): active; positive | mutagenic call (Test System: AMES SALMONELLA TYPHIMURIUM, Strain/Indicator: TA98(1,8-DNP6), Metabolic Activation: RAT, LIVER, S-9, AROCLOR 1254, Method: PREINCUBATION): active; positive | mutagenic call (Test System: AMES SALMONELLA TYPHIMURIUM, Strain/Indicator: TA98(NR), Metabolic Activation: NONE, Method: PREINCUBATION): active; positive | mutagenic call (Test System: AMES SALMONELLA TYPHIMURIUM, Strain/Indicator: TA98(NR), Metabolic Activation: RAT, LIVER, S-9, AROCLOR 1254, Method: PREINCUBATION): active; positive | mutagenic call [1]: active; positive | mutagenic call [2]: active; positive | mutagenic call [3]: active; positive | mutagenic call [4]: active; positive

COC(=O)c1oc(N(OC(C)=O)C(C)=O)c(-c2ccccc2)c1-c1ccccc1
mutagenic call [1]: inactive; negative | mutagenic call (Test System: AMES SALMONELLA TYPHIMURIUM, Strain/Indicator: TA98, Metabolic Activation: RAT, LIVER, S-9, AROCLOR, Method: PREINCUBATION): inactive; negative | mutagenic call [3]: inactive; negative | mutagenic call (Test System: AMES SALMONELLA TYPHIMURIUM, Strain/Indicator: TA100, Metabolic Activation: RAT, LIVER, S-9, AROCLOR, Method: PREINCUBATION): inactive; negative
